The source of these data is PubChem BioAssay (NCI).

Test systems include A549 NSCLC; CAKI-1 renal; CCRF-CEM leukemia; HCC-2998 colon; HL-60(TB) leukemia; HOP-62 NSCLC; K-562 leukemia; SF-295 CNS; TK-10 renal; UO-31 renal.
What all share (test): inhibition of tumour cell growth, NCI panel, 48 h

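All cell lines were grown in 96-well plates and treated with compound for 48 hours. At the GI50, growth is halved. Definition used: TGI = concentration required for complete inhibition of growth.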

As for `O=[n+]1c(CBr)c(CBr)n([O-])c2ccccc21`, the GI50 was 17.4 µM in the test with A549 NSCLC; 12 µM in the test with CAKI-1 renal; 2.79 µM in the test on CCRF-CEM leukemia; 16.9 µM in the test on HCC-2998 colon; 2.26 µM in the test with HL-60(TB) leukemia; 17.8 µM in the test with HOP-62 NSCLC. The GI50 in the test with K-562 leukemia is 3.46 µM; with SF-295 CNS it was 17.2 µM; in the test on TK-10 renal it was 1.97 µM; with UO-31 renal, 1440 nM. Moreover, the TGI in the test with A549 NSCLC is 35.6 µM; in the test with CAKI-1 renal, 24.5 µM; in the test with CCRF-CEM leukemia, 14.2 µM; in the test on HCC-2998 colon it was 31 µM; in the test on HL-60(TB) leukemia, 5.8 µM; in the test on HOP-62 NSCLC, 37.5 µM. For the same molecule, the TGI is 17.2 µM in the test on K-562 leukemia, 36 µM in the test with SF-295 CNS, 4.17 µM in the test with TK-10 renal and 3 µM with UO-31 renal.
For the molecule `COc1ccc(-n2cc(-c3ccc(OC)c(OC)c3)[nH]c2=S)cc1Cl`, the GI50 in the test with A549 NSCLC is above 100 µM; with CAKI-1 renal, above 100 µM; in the test with CCRF-CEM leukemia it was above 100 µM; with HCC-2998 colon, above 100 µM; in the test on HL-60(TB) leukemia, above 100 µM; in the test on HOP-62 NSCLC, 30.2 µM. The GI50 in the test with K-562 leukemia is above 100 µM; in the test on SF-295 CNS, 41 µM; with TK-10 renal it was above 100 µM; in the test with UO-31 renal, above 100000 nM. Besides, the TGI with A549 NSCLC, in the test on CAKI-1 renal, with CCRF-CEM leukemia, in the test with HCC-2998 colon, in the test with HL-60(TB) leukemia and with HOP-62 NSCLC was above 100 µM throughout. Further, the TGI in the test on K-562 leukemia, in the test on SF-295 CNS, in the test with TK-10 renal and with UO-31 renal was above 100 µM each time.
As to `COc1cccc(-c2nn(-c3ccccc3)cc2-c2ccnc(NCCCNS(=O)(=O)c3cccc(F)c3)c2)c1`, the GI50 is 6.34 µM with A549 NSCLC; 6.16 µM with CAKI-1 renal; 4.62 µM with CCRF-CEM leukemia; 3.92 µM in the test with HCC-2998 colon; 3.52 µM in the test with HL-60(TB) leukemia; 10.4 µM in the test with HOP-62 NSCLC. The GI50 with K-562 leukemia was 3.31 µM; with SF-295 CNS, 2.94 µM; with TK-10 renal it was 5.32 µM; in the test on UO-31 renal, 1870 nM. Also, the TGI with A549 NSCLC was above 100 µM; in the test on CAKI-1 renal it was above 100 µM; in the test on CCRF-CEM leukemia, above 100 µM; in the test on HCC-2998 colon it was above 100 µM; with HL-60(TB) leukemia it was 24.7 µM; in the test with HOP-62 NSCLC, above 100 µM. The TGI in the test with K-562 leukemia, in the test on SF-295 CNS, with TK-10 renal and with UO-31 renal was above 100 µM each time.
Turning to `O=C1Oc2cc3c(c4cccc1c24)OCN(c1ccc(Cl)cc1)C3`, the TGI in the test on A549 NSCLC was above 100 µM; with CAKI-1 renal it was above 100 µM; in the test on CCRF-CEM leukemia, 45.7 µM; in the test on HCC-2998 colon it was above 100 µM; in the test with HL-60(TB) leukemia, above 55.5 µM; in the test with HOP-62 NSCLC, above 100 µM. Also, the TGI with K-562 leukemia was 53.2 µM; in the test on SF-295 CNS, above 100 µM; in the test with TK-10 renal, above 100 µM; with UO-31 renal, 32.2 µM.
As to `CN(C)CCNc1nc2ccccc2c2[nH]c3ccccc3c12`, the GI50 was 0.37 µM in the test with A549 NSCLC; 0.344 µM in the test with CAKI-1 renal; 0.937 µM in the test with CCRF-CEM leukemia; 0.483 µM with HCC-2998 colon; 1.55 µM in the test on HL-60(TB) leukemia; 0.203 µM with HOP-62 NSCLC. Further, the GI50 in the test with K-562 leukemia is 0.748 µM; with SF-295 CNS, 0.439 µM; in the test on TK-10 renal, 0.429 µM; with UO-31 renal, 1010 nM. Further, the TGI stood at 10.1 µM in the test with A549 NSCLC; 1.76 µM in the test on CAKI-1 renal; 3.95 µM with CCRF-CEM leukemia; 2.38 µM with HCC-2998 colon; 3.77 µM in the test with HL-60(TB) leukemia; 1.8 µM in the test on HOP-62 NSCLC. In addition, the TGI in the test with K-562 leukemia was 9.23 µM; in the test on SF-295 CNS, 2.91 µM; with TK-10 renal it was 1.95 µM; with UO-31 renal, 13 µM.
Regarding `COc1cc2c(c(O)c1C)C(=O)C(Cl)=CC2=O`, the TGI is 55.8 µM in the test with A549 NSCLC; 11.6 µM in the test with CAKI-1 renal; 16 µM with CCRF-CEM leukemia; 44.8 µM in the test with HCC-2998 colon; 5.57 µM with HL-60(TB) leukemia; above 69.2 µM with HOP-62 NSCLC. The TGI is 8.64 µM in the test with K-562 leukemia, 34.4 µM in the test with SF-295 CNS, 15.3 µM in the test with TK-10 renal and 21.6 µM in the test on UO-31 renal.
On to `Clc1cccc(NC=Nc2ccc(-c3nc4ccccc4s3)cc2)c1`, for which the GI50 in the test on A549 NSCLC is 9.11 µM; with CAKI-1 renal, 17.8 µM; in the test on CCRF-CEM leukemia, 10.5 µM; in the test with HCC-2998 colon it was 16 µM; in the test with HL-60(TB) leukemia, 10.5 µM; with HOP-62 NSCLC, 42.3 µM. Further, the GI50 was 7.81 µM with K-562 leukemia, 17.4 µM with SF-295 CNS, 21 µM in the test on TK-10 renal and 13800 nM in the test on UO-31 renal. Besides, the TGI in the test on A549 NSCLC was 20.4 µM; in the test with CAKI-1 renal, above 50 µM; in the test with CCRF-CEM leukemia it was 25.4 µM; in the test with HCC-2998 colon it was 42.5 µM; in the test with HL-60(TB) leukemia, 27.3 µM; with HOP-62 NSCLC, above 50 µM. The TGI is 18.2 µM with K-562 leukemia, above 50 µM in the test on SF-295 CNS, above 50 µM in the test with TK-10 renal and 33.6 µM in the test with UO-31 renal.
As to `C[Si](C)(C)c1ccc(CC2(Cc3ccc([Si](C)(C)C)cc3)CCNC2)cc1`, the TGI in the test on A549 NSCLC is 5.22 µM; with CAKI-1 renal, 5.29 µM; with CCRF-CEM leukemia, 48.1 µM; with HCC-2998 colon, 4.43 µM; with HL-60(TB) leukemia it was above 100 µM; in the test on HOP-62 NSCLC, 6 µM. Besides, the TGI was 84.6 µM with K-562 leukemia, 6.86 µM in the test with SF-295 CNS, 35.5 µM with TK-10 renal and 5.9 µM in the test with UO-31 renal.
